Tests used:
HFD mice = assay: Hair corticosteroid levels (LC-MS/MS) in HFD mice given dietary SC-26196; type: in vivo, WT C57BL/6J mice
Protocol: Six weeks-old male WT C57BL/6J mice were fed for 20 weeks a LFD (D12450B, Research Diets, NJ, USA) or a HFD (D12492, Research Diets, NJ, USA). In some experiments, WT C57BL/6J mice were fed for 8 weeks a HFD and for another 8 weeks a HFD supplemented with SC-26196 (Biorbyt Ltd). SC-26196 was mixed in the HFD at a concentration of 625 mg/kg of diet corresponding to approx. 100 mg/kg of animal weight. In other experiments WT mice were fed for 10 weeks a HFD and for another 10 weeks a HFD supplemented with icosapent ethyl (Vascepa). The content of Vascepa capsules was mixed by Research Diets with the diet at a concentration of 1.125 g/kg icosapent ethyl (corresponding to approx. 180 mg/kg of animal weight). Mice were weighed every week. Glucose and insulin tolerance tests were performed as previously described (20, 21). Three to five mg of hair (2-3 mm close to the skin on the back of the mice) were cut while gently holding the mice without anaesthesia.
Corticosterone and 11-dehydrocorticosterone in hair were extracted with methanol as described elsewhere. In brief, hair (3-5 mg) was washed by addition of 2.5 mL isopropanol. After 3 minutes the isopropanol was decanted and hair samples were dried in a fume hood. After drying, hair samples were extracted in 1.8 mL methanol that contained the internal standard mixtures for 18 h at room temperature. Finally, the methanolic extract was dried down, followed by reconstitution in respective mobile phase and analysis by LC-MS/MS as previously described with minor modifications. […] Corticosterone and 11-dehydrocorticosterone were detected by using the multi reaction monitoring scan mode with respective quantifier ions of 347.1->329.2 and 345.1->121.1, and qualifier ions of 347.1->90.9 and 345.1->242.3. […] Quantification of steroid hormones was achieved by comparisons of ratios of analyte peak areas to internal standard peak areas observed in samples to those in calibrators. Measured steroid concentrations were normalized to sample weights.

[1] = system: StAR, Cyp11a1, 3β-Hsd2, Cyp11b1, Cyp11b2; assay: mRNA expression of StAR and steroidogenic enzymes upon FADS2 inhibition (qPCR); type: cell-based; conditions: upon FADS2 inhibition (SC-26196)
Protocol: Adrenal glands or adrenal corteces were isolated from WT C57BL/6J mice, cleaned from the surrounding fat tissue and incubated in collagenase buffer (1.6 mg/ml collagenase type I, 1.6 mg/ml BSA) for 45 min at 37 °C, while shaking at 900 rpm. Dissociated cells were passed through 22 G needle and a 100 µm cell strainer and centrifuged at 300 × g for 5 min at 4 °C. Cells of a pool from two adrenals of each mouse were distributed in four 0.2 % gelatin-precoated wells of a 96-well plate in DMEM/F12 supplemented with 1 % FBS, 50 U/mL penicillin and 50 µg/mL streptomycin. Two hours after seeding 10 µM SC-26196 (Tocris, Wiesbaden-Nordenstadt, Germany) or same amount of carrier (DMSO) were added without changing the medium. In some experiments medium was additionally supplemented with 150 µM ARA (Sigma Aldrich, Germany) or same amount of solvent (endotoxin-free water). […]
RNA was isolated from frozen tissues with the TRI Reagent (MRC, Cincinnati, USA) after mechanical tissue disruption or from cells with the RNeasy Mini Kit (Qiagen, Düsseldorf, Germany) according to manufacturer's instructions. […] Reverse transcription was performed with the iScript cDNA Synthesis kit (Biorad, Munich, Germany) and cDNA was analyzed by qPCR using the SsoFast Eva Green Supermix (Bio-Rad, Munich, Germany), a CFX384 real-time System C1000 Thermal Cycler (Bio-Rad) and the Bio-Rad CFX Manager 3.1 software.

NCI-H295R cells = assay: Steroid production in forskolin-treated NCI-H295R cells treated with SC-26196; type: cell-based, Human; conditions: FADS2 inhibition (SC-26196)
Protocol: NCI-H295R cells (obtained from ATCC Cat# CRL-2128) were maintained in DMEM/F12 medium supplemented with 2.5 % Nu-Serum type I (Corning), 1 % Insulin Transferrin Selenium (ITS; Gibco), 50 U/mL penicillin and 50 µg/mL streptomycin. They were treated for 18 h with 10 µM SC-26196 or DMSO. In some experiments, NCI-H295R cells were treated or not for 48 h 66 µM EPA and in the last 24 h they were stimulated or not with forskolin (10 µM; Sigma-Aldrich).
Steroid hormones in plasma and cell culture supernatants were analyzed by LC-MS/MS as previously described (71). Fifty to hundred µL plasma or cell culture supernatants were extracted by solid phase extraction using positive pressure, followed by a dry-down under gentle stream of nitrogen. Residues were reconstituted in 100 µL of the initial LC mobile phase and 10 µL were injected for detection by the triple quadrupole mass spectrometer in multiple reaction-monitoring scan mode using positive electrospray ionization. Quantification of steroid concentrations was done by comparisons of ratios of analyte peak areas to respective peak areas of stable isotope labeled internal standards obtained in samples to those of calibrators.

[2] = 6 weeks after SC-26196 treatment start, HFD containing 0.625 g/kg SC-26196 vs control, n=8-10

SMILES: N#CC(CCCN1CCN(/N=C/c2cccnc2)CC1)(c1ccccc1)c1ccccc1 [SC-26196]
- levels of 11-dehydrocorticosterone in newly-grown hair (HFD mice; 3 weeks after SC-26196 treatment start, HFD containing 0.625 g/kg SC-26196 (approx. 100 mg/kg of animal weight) vs control): reduced
- 11-dehydrocorticosterone levels in the hair (HFD mice; [2]): reduced
- corticosterone levels in the hair (HFD mice; [2]): reduced
- mRNA expression of StAR or steroidogenic enzymes (Cyp11a1, 3β-Hsd2, Cyp11b1, Cyp11b2) [1]: increased
- 11-deoxycortisol production (NCI-H295R cells): reduced
- progesterone production (NCI-H295R cells): reduced
